Data reported in paper PMC8619593 (Pharmaceuticals, 2021).
≈ marks a conversion by molar mass, not a printed value. Where “and” joins values, the source holds several entries; their conditions need not be identical. Equal entries are not always repeated. Entries after “also recorded” stand apart in the source; their conditions may differ. Where two headings read alike, the source gives them in different places.

Tests used:
[1] = system: Staphylococcus aureus MRSA ATCC 33591; experiment: Broth microdilution MIC
[2] = system: Enterococcus faecalis ATCC 29212; experiment: Broth microdilution MIC; settings: ATCC29212, 24 h
[3] = system: Bacillus subtilis ATCC 6633; experiment: Broth microdilution MIC; settings: ATCC6633, 24 h
[4] = system: Enterococcus faecalis ATCC 51299 VanB; experiment: Broth microdilution MIC
[5] = system: Staphylococcus aureus MSSA ATCC 29213; experiment: Broth microdilution MIC
[6] = system: Staphylococcus epidermidis ATCC 35984 biofilm; experiment: Broth microdilution MIC
[7] = system: Enterococcus faecalis 15376 VanA; experiment: Broth microdilution MIC; settings: 24 h
[8] = system: Staphylococcus epidermidis mecA; experiment: Broth microdilution MIC; settings: 24 h
[9] = target: T1, Human recombinant cathepsin B (exopeptidase activity) (Homo sapiens, UniProt P07858); experiment: Cathepsin B exopeptidase inhibition assay; assay type: biochemical
T1 construct: The Preparation of Catalytically Active Human Cathepsin B from Its Precursor Expressed in Escherichia coli; made in house; host or cells: Escherichia coli

Vero E6 cells = settings: dilutions from 100 µM
[10] = target: Human recombinant cathepsin L (Homo sapiens, UniProt P07711); experiment: Cathepsin L inhibition assay; assay type: biochemical
SARS-CoV-2 [11] = system: SARS-CoV-2
3CLPro = 3CLPro (Severe acute respiratory syndrome coronavirus 2, UniProt P0DTD1); experiment: 3CLPro FRET-based inhibition assay; assay type: biochemical, SARS-CoV-2; settings: for inhibition at 100 µM: read-out: 3CLPro inhibition; for IC50: FRET, 600 nM 3CLPro, 250 nM substrate
SARS-CoV-2 [12] = experiment: Viral RNA reduction assay (ddPCR) in Vero E6 cells, MOI 0.01; settings: for SARS-CoV-2 RNA Reduction, activity at 50 µM: MOI 0.01, tested at 50 µM; for EC50: read-out: SARS-CoV-2 RNA Reduction EC50; for Therapeutic Index CC50/EC50: calculated from RNA reduction EC50 values
SARS-CoV-2 [13] = experiment: microbe, parasite or virus in culture; assay type: cell-based; settings: Vero E6 cells, read-out: SARS-CoV-2 IFA, EC50
SARS-CoV-2 [14] = experiment: microbe, parasite or virus in culture; assay type: cell-based; settings: Vero E6 cells, MOI 0.04, three days, XTT, read-out: SARS-CoV-2 CPE, EC50
in vitro = settings: African green monkey
SARS-CoV-1 = settings: read-out: IC50 for blocking SARS-CoV-1 entry; cited from earlier work
SARS-CoV-2 [15] = settings: read-out: IC50 for blocking SARS-CoV-2 entry; cited from earlier work
[16] = set-up: method as in PMID 32625627; settings: cited from earlier work
[17] = Enterococcus faecalis, ATCC51299, 24 h
[18] = Staphylococcus epidermidis, ATCC35984, 24 h
[19] = Enterococcus faecalis, 15376VANA
[20] = read-out: Exopeptidase Cathepsin B IC50; pH 5.0, substrate Abz-Gly-Ile-Val-Arg-Ala-Lys(Dnp)-OH
[21] = read-out: Cathepsin L IC50; pH 5.5, substrate Z-Phe-Arg-AMC
[22] = Severe acute respiratory syndrome coronavirus 2, Vero C1008, 48 h
[23] = Severe acute respiratory syndrome coronavirus 2, Vero C1008, 72 h
[24] = pH 5.5, substrate Z-Phe-Arg-AMC; read-out: Cathepsin L IC50

Chain of Human recombinant cathepsin L (P07711 114-333): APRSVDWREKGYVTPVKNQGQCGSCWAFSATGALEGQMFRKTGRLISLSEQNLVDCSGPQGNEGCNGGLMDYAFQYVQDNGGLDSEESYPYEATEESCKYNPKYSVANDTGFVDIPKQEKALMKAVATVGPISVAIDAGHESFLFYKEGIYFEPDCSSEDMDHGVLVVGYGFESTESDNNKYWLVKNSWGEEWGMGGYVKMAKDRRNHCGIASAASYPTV

Compound	MIC ([1]; Staphylococcus aureus, 24 h)	MIC [2]	MIC [3]	MIC [4, 17]	MIC ([5]; Staphylococcus aureus, 24 h)	MIC [6, 18]	MIC [7, 19]	MIC ([8]; Staphylococcus epidermidis)	IC50 [9, 20]	CC50 (Vero E6 cells)	IC50 [10, 21]	Therapeutic Index CC50/EC50 (SARS-CoV-2 [11])	IC50 (3CLPro)	other results
COC(=O)/C(C)=C/C=C/C(C)=C/C=C/C=C(C)/C=C/C=C(\C)C(=O)N[C@H]1C(=O)N[C@@H]2Cc3ccc(c(Cl)c3)Oc3cc4cc(c3O)Oc3ccc(cc3Cl)[C@@H](O[C@@H]3O[C@H](CO)[C@@H](O)[C@H](O)[C@H]3NC(C)=O)[C@@H]3NC(=O)[C@H](NC(=O)[C@@H]4NC(=O)[C@@H](NC2=O)c2cc(O)cc(c2)Oc2cc1ccc2O)c1ccc(O)c(c1)-c1c(O)cc(O)cc1[C@@H](C(=O)O)NC3=O [Compound 5b]	2 µg/mL (≈ 1.16 µM)	4 µg/mL (≈ 2.32 µM)	16 µg/mL (≈ 9.27 µM)	8 µg/mL (≈ 4.63 µM)	8 µg/mL (≈ 4.63 µM)	0.5 µg/mL (≈ 0.29 µM)	8 µg/mL (≈ 4.63 µM)	2 µg/mL (≈ 1.16 µM)	99.5 ± 1.16 µM	> 100 µM	103 ± 1.12 µM	>19.2	–	–
CC(=O)N[C@H]1[C@H](O[C@@H]2c3ccc(c(Cl)c3)Oc3cc4cc(c3O)Oc3ccc(cc3Cl)C[C@H]3NC(=O)[C@H](N)c5ccc(O)c(c5)Oc5cc(O)cc(c5)[C@H](NC3=O)C(=O)N[C@H]4C(=O)N[C@H]3C(=O)N[C@@H]2C(=O)N[C@H](C(=O)O)c2cc(O)cc(O)c2-c2cc3ccc2O)O[C@H](CO)[C@@H](O)[C@@H]1O [Compound 2, Teicoplanin pseudoaglycone]	–	–	–	–	–	–	–	–	–	–	–	–	–	inhibition at 200 µM (3CLPro; at 200 μM): 34%; inhibition at 50 µM ([9]; read-out: Exopeptidase Cathepsin B relative inhibition): 7.8%; inhibition at 50 µM ([10]; read-out: Cathepsin L relative inhibition): 0.04%
COC(=O)/C(C)=C/C=C/C(C)=C/C=C/C=C(C)/C=C/C=C(\C)C(=O)O [Compound 1b, crocetin monomethyl ester]	–	–	–	–	–	–	–	–	–	–	–	–	–	SARS-CoV-2 RNA Reduction, activity at 50 µM (SARS-CoV-2 [12]; Vero E6 cells): did not show antiviral activity; also recorded: not active at 50 µM; inhibition at 100 µM (3CLPro): 24%; melting point: 204 to 205 °C
COC(=O)/C=C/C(C)=C\C=C\C(C)=C\C=C\C=C(C)\C=C\C=C(C)\C=C\C(=O)N[C@H]1C(=O)N[C@H]2C(=O)N[C@H](C(=O)N[C@H]3C(=O)N[C@H]4C(=O)N[C@H](C(=O)N[C@H](C(=O)OC)c5cc(O)cc(O)c5-c5cc4ccc5O)[C@H](O)c4ccc(cc4)Oc4cc3cc(c4O)Oc3ccc(cc3)[C@H]2O)c2cc(O)c(C)c(c2)Oc2cc1ccc2O [Compound 7]	64 µg/mL (≈ 41.3 µM)	32 µg/mL (≈ 20.6 µM)	32 µg/mL (≈ 20.6 µM)	64 µg/mL (≈ 41.3 µM)	64 µg/mL (≈ 41.3 µM)	64 µg/mL (≈ 41.3 µM)	256 µg/mL (≈ 165 µM)	64 µg/mL (≈ 41.3 µM)	–	–	–	–	–	–
CC(=O)NC1C(OC2c3ccc(c(Cl)c3)Oc3cc4cc(c3O)Oc3ccc(cc3Cl)CC3NC(=O)C(NC(=O)C(C)=CC=CC(C)=CC=CC=C(C)C=CC=C(C)C=CC5=C(C)CCCC5(C)C)c5ccc(O)c(c5)Oc5cc(O)cc(c5)C(NC3=O)C(=O)NC4C(=O)NC3C(=O)NC2C(=O)NC(C(=O)O)c2cc(O)cc(O)c2-c2cc3ccc2O)OC(CO)C(O)C1O (stereo not shown) [Compound 5c]	1 µg/mL (≈ 0.55 µM)	4 µg/mL (≈ 2.2 µM)	16 µg/mL (≈ 8.81 µM)	8 µg/mL (≈ 4.4 µM)	8 µg/mL (≈ 4.4 µM)	0.5 µg/mL (≈ 0.275 µM)	8 µg/mL (≈ 4.4 µM)	0.5 µg/mL (≈ 0.275 µM)	56.5 ± 1.06 µM	> 100 µM	47.1 ± 1.05 µM	>22.7	34.5 ± 12.5 µM	–
COC(=O)/C=C/C(C)=C\C=C\C(C)=C\C=C\C=C(C)\C=C\C=C(C)\C=C\C(=O)N[C@H]1C(=O)N[C@@H]2Cc3ccc(c(Cl)c3)Oc3cc4cc(c3O)Oc3ccc(cc3Cl)[C@@H](O[C@@H]3O[C@H](CO)[C@@H](O)[C@H](O)[C@H]3NC(C)=O)[C@@H]3NC(=O)[C@H](NC(=O)[C@@H]4NC(=O)[C@@H](NC2=O)c2cc(O)cc(c2)Oc2cc1ccc2O)c1ccc(O)c(c1)-c1c(O)cc(O)cc1[C@@H](C(=O)O)NC3=O [Compound 5a]	0.5 µg/mL (≈ 0.281 µM)	16 µg/mL (≈ 9 µM)	32 µg/mL (≈ 18 µM)	16 µg/mL (≈ 9 µM)	16 µg/mL (≈ 9 µM)	0.5 µg/mL (≈ 0.281 µM)	16 µg/mL (≈ 9 µM)	16 µg/mL (≈ 9 µM)	47.9 ± 1.07 µM	> 100 µM	42.4 ± 1.86 µM	>17	13.9 ± 1.73 µM	–
CC1=C(/C=C/C(C)=C/C=C/C(C)=C/C=C/C=C(C)/C=C/C=C(\C)C(=O)O)C(C)(C)CCC1 [Compound 1c, β-apo-8′-carotenoic acid]	–	–	–	–	–	–	–	–	–	–	–	–	73 ± 7.1 µM	EC50 (SARS-CoV-2 [13]; Severe acute respiratory syndrome coronavirus 2, Vero C1008, MOI 0.04, * measurement from 50 µM): 31 ± 7.9 µM; EC50 (SARS-CoV-2 [12]; [22]): 15 ± 2 µM; Therapeutic Index CC50/EC50 (SARS-CoV-2 [12]): >6.7; melting point: 194 to 195 °C; EC50 (SARS-CoV-2 [14]; [23]): 14 ± 2.2 µM; IC50 ([9]; read-out: Exopeptidase Cathepsin B IC50): 21.3 ± 1.2 µM; IC50 [10, 24]: 76 ± 1.74 µM; CC50 at 3 days (in vitro): > 100 µM
teicoplanin [Compound 3, reference compound]	–	2 µg/mL	0.5 µg/mL	–	–	–	–	–	–	> 100 µM	–	–	–	MIC ([1]; Staphylococcus aureus MRSA ATCC 33591, 24 h): 0.5 µg/mL; EC50 (SARS-CoV-2 [13]; MOI 0.04, three days, dilutions from 100 µM): 18 ± 5.4 µM; MIC ([4]; Enterococcus faecalis ATCC 51299 VanB, 24 h): 4 µg/mL; MIC ([5]; Staphylococcus aureus MSSA ATCC 29213, 24 h): 0.5 µg/mL; MIC ([6]; Staphylococcus epidermidis ATCC 35984 biofilm, 24 h): 2 µg/mL; EC50 (SARS-CoV-2 [12]; Vero E6 cells, MOI 0.01, 48 h, ddPCR of supernatant): 5.6 ± 1.3 µM; 3CLPro inhibition (3CLPro; at 200 μM): 13% at 200 μM; MIC ([7]; Enterococcus faecalis 15376 VanA): 256 µg/mL; MIC ([8]; Staphylococcus epidermidis mecA): 16 µg/mL; IC50 (SARS-CoV-1): 3.76 µM; EC50 (SARS-CoV-2 [14]): 15.7 µM and 16 µM; Exopeptidase Cathepsin B relative inhibition ([9]; at 50 μM): 0.45% at 50 μM; Cathepsin L relative inhibition ([10]; at 50 μM): 5.07% at 50 μM; Cathepsin L relative inhibition ([10]; at 50 μM; listed as teicoplanin): 5%; IC50 (SARS-CoV-2 [15]): 1.66 µM
CC(/C=C/C=C(C)/C=C/C(=O)O)=C\C=C\C=C(C)\C=C\C=C(C)\C=C\C(=O)O (stereo in doubt) [Compound 1d, norbixin]	–	–	–	–	–	–	–	–	–	> 100 µM	–	–	36.1 ± 11.7 µM	SARS-CoV-2 RNA Reduction, activity at 50 µM (SARS-CoV-2 [12]; Vero E6 cells): completely inactive; SARS-CoV-2 RNA Reduction, activity at 50 µM (SARS-CoV-2 [12]; Vero E6 cells, listed as 1d (norbixin)): not active at 50 µM
COC(=O)/C=C/C(C)=C\C=C\C(C)=C\C=C\C=C(C)\C=C\C=C(C)\C=C\C(=O)O [Compound 1a, Bixin, reference compound]	512 µg/mL (≈ 1300 µM)	512 µg/mL (≈ 1300 µM)	512 µg/mL (≈ 1300 µM)	512 µg/mL (≈ 1300 µM)	512 µg/mL (≈ 1300 µM)	512 µg/mL (≈ 1300 µM)	512 µg/mL (≈ 1300 µM)	512 µg/mL (≈ 1300 µM)	–	–	–	–	–	EC50 (SARS-CoV-2 [13]; Severe acute respiratory syndrome coronavirus 2, Vero C1008, 72 h, MOI 0.04, three days, dilutions from 100 µM): 28 ± 8.8 µM; EC50 (SARS-CoV-2 [12]; [22]): 5.9 ± 1.7 µM; Therapeutic Index CC50/EC50 (SARS-CoV-2 [12]): >17; inhibition at 100 µM (3CLPro): 56%; EC50 (SARS-CoV-2 [14]; [23]): 14 ± 3.5 µM; IC50 ([9]; pH 5.0, substrate Abz-Gly-Ile-Val-Arg-Ala-Lys(Dnp)-OH; read-out: Exopeptidase Cathepsin B IC50): 14.6 ± 1.71 µM; acceptable daily intake [16]: 6 mg/kg body weight; IC50 [10, 24]: 41.9 ± 1.12 µM; CC50 (in vitro): > 100 µM
